# Measurements from paper PMC12349723, “Computationally accelerated identification of P-glycoprotein inhibitors” (PLOS One, 2025).
# Several values for one entry are separate records, joined by “and”; a condition that tells them apart may be missing. Identical values can stand only once.
# How the values were obtained:
# P-gp = biological target: T1, P-gp (Homo sapiens, UniProt P08183); assay: LC-MS/MS intracellular accumulation assay with or without tariquidar (P-gp transport substrate test) in DU145-TXR cells; type: in vitro ADME; conditions: for P-gp transport substrate assessment: 5 µM compound with or without 500 nM tariquidar, LC-MS/MS
# T1 construct: The MDR, P-gp overexpressing DU145-TXR cells were maintained under positive selection pressure; endogenous in cells; host or cells: DU145-TXR (paclitaxel-resistant sub-line of DU145 human prostate cancer cells)
# T1 sequence (P08183 whole entry): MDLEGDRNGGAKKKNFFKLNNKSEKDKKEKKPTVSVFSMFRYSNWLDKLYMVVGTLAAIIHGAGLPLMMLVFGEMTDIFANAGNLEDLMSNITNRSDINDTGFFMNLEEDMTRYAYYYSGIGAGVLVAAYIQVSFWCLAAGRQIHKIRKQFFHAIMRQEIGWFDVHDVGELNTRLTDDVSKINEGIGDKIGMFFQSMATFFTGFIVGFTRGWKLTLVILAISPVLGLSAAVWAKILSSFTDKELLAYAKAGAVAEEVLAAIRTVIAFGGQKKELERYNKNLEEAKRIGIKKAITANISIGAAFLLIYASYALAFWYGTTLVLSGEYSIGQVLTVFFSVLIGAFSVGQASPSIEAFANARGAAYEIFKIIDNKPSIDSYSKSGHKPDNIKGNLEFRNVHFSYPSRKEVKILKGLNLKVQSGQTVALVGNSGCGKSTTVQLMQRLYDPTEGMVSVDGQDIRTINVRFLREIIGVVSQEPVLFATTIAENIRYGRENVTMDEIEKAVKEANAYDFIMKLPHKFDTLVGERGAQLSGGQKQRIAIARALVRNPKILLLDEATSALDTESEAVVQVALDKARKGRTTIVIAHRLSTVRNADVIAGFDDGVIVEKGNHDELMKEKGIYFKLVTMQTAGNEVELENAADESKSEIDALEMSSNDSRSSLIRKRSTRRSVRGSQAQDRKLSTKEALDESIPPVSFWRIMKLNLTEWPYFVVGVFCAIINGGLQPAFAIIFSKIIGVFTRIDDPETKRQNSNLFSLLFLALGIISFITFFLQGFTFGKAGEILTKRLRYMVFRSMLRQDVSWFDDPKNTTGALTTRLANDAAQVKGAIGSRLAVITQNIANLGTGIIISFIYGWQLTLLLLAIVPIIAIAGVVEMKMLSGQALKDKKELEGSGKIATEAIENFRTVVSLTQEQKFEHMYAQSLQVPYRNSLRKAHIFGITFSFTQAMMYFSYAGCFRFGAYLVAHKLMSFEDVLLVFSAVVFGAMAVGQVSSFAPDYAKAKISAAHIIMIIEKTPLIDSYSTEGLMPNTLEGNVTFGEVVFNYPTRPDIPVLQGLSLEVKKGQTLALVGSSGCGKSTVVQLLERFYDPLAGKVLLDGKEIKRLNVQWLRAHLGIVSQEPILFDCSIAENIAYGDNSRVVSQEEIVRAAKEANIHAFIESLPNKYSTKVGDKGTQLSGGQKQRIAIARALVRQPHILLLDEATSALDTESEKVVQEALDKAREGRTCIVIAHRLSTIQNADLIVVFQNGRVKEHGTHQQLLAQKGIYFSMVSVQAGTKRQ
# Protocol: DU145-TXR cells were seeded at 350,000 cells per well in 6-well plates in complete RPMI medium. […] A full sample of DAU was also prepared for quantitative analysis. […] Media was removed with a glass vacuum aspirator. Cells were re-suspended and washed in 2mL of ice-cold Hank’s Balanced Salt Solution (HBSS, Gibco), and spun again at 2400 rpm. Cell lysates were diluted in 600 µL of ice-cold HBSS, flash-frozen in liquid nitrogen, and stored at −80 °C until analysis. LC-MS/MS intracellular accumulation assays were performed in collaboration with the Pharmacology Core at the University of Texas Southwestern Medical Center (UTSW). […] This method allowed us to quantify the change – if any – in the relative amount of compound present in the samples when TQR was added. An increase in the relative amount of compound indicates enhanced intracellular retention that compound. […] The “Internal Standard” (IS) is a known substance added in a constant amount to each sample. The “Peak Area”, expressed as “counts”, describes the number of MS/MS spectra from the experimental compound and serves as a measure of its relative abundance. […] These values allow a comparison of the relative abundance of compound between the “- TQR” and “+ TQR” samples, and to test for statistically significant differences. LC-MS/MS quantification was performed as follows. Cell lysate was aliquoted into Eppendorf tubes. In contrast to [9], blank cell lysates were not spiked with varying concentrations of each compound to create a standard curve, since compound amounts were normalized to abundance of the internal standard. […] The supernatant was then transferred to an HPCL vial, and subsequently analyzed using LC-MS/MS using a Sciex 4000QTRAP mass spectrometer coupled to a Shimadzu Prominence LC. […] The column flow rate was 1.5 ml/min using an Agilent C18 XDB, 5 micron packing 50 × 4.6 mm column. […] A BSA standard curve was then prepared in water and mixed using the same ratio. […] The ratio of Analyte to Internal Standard was normalized to the lysate content for each individual sample. […] Statistical significance was determined using a Student’s T Test in GraphPad Prism. We aimed to identify P-gp inhibitors that are not transport substrates of the pump itself. […] To test these predictions in vitro, liquid chromatography with tandem mass spectrometry (LC-MS/MS) was used to assess the intracellular accumulation of experimental compounds as described in [9]. […] The relative intracellular accumulation of each experimental compound was then assessed using LC-MS/MS. […] The P-gp substrate and chemotherapeutic daunorubicin (DAU) was used as a positive control for P-gp-mediated transport.
# A2780 cells = assay: MTT viability assay, parental A2780 cells, with or without PTX; type: cell-based, human; conditions: for Increase of PTX toxicity against parental A2780 cells: 15 µM compound with or without 500 nM PTX, 48 h, MTT; for Mean % Survival / % Survival (individual sample): A2780 cells; for Mean % Survival / viability at 15 µM: mean of 8 or 12 samples; for % Survival (individual sample): single samples; for viability at 15 µM: Homo sapiens, A2780, A2780 cells, read-out: Mean % Survival
# Protocol: The chemotherapeutic sensitive DU145 human prostate cancer cells and the multidrug resistant sub-line, DU145-TXR, were generous gifts from Dr. Evan Keller (University of Michigan, Ann Arbor, MI). The MDR, P-gp overexpressing DU145-TXR cells were maintained under positive selection pressure by supplementing complete medium with 10 nM paclitaxel (Acros Organics, NJ). In addition to the aforementioned cell lines, the chemotherapeutic sensitive A2780 ovarian cancer cells (93112519, Sigma) and the multidrug resistant A2780-ADR (93112520, Sigma) were maintained in complete RPMI media consisting of RPMI-1640 with L-glutamine, 10% fetal bovine serum (FBS; Corning), 100 U/mL penicillin and 100 μg/mL streptomycin in a humidified incubator at 37 °C and 5% CO2. The MDR, P-gp overexpressing A2780-ADR cell line was maintained under positive selection pressure by supplementing complete medium with 100 nM doxorubicin (Fisher Scientific, NJ). The non-cancerous HFL1 (human lung fibroblast) cell line cell line was a generous gift from Dr. Robert Harrod (Southern Methodist University, Dallas, TX) and was maintained in complete F12K media consisting of F12K with 10% fetal bovine serum, 100 U/mL penicillin, and 100 µg/mL streptomycin (Gibco). Flasks and 96 well plates that were used with the non-cancerous line HFL1 were pre-treated with 0.1 mg/ml Collagen Type 1 (Gibco) and rinsed with PBS (Fisher).
# Culture of the DU145, DU145-TXR, and HFL1 cell lines was performed as described in [8]. Culture of the A2780 and A2780-ADR cell lines was performed as described in [9]. MTT assays were performed as described in [8] with minor modifications. LC-MS/MS accumulation assays were performed as described in {Nanayakkara, 2018 #173} [9] with some modifications. […] The inhibitor concentration was lowered to 15 µM here, as the goal of the study was to identify compounds that were effective in reversing MDR at low concentrations, and to determine if the expanded virtual-assisted methods improved on our first-draft attempt. Compounds 56–98 were pre-screened using Resazurin cell viability assays: cells were incubated with 15 µM compound with or without 500 nM PTX for 48 hours, after which cell survival was assessed similar to [39]. Data represent the mean of two separate experiments, with n = 3 samples per experiment (n = 6 total) (S4 Table). The top performing compounds from this initial screen were re-tested with MTT viability assays against DU145-TXR cells, as described below.
# MTT assays measure the reduction of yellow, water soluble 3-(4,5-dimethylthiazol-2-yl)-2,5-diphenyltetrazolium bromide (MTT) to blue, insoluble formazan crystals by cellular reductase processes in living cells. Cells were trypsinized from monolayers and seeded in complete medium in 96 well plates. Cancerous cell lines (DU145, DU145-TXR, A2780, A2780-ADR) were seeded at 3,000 cells per well in complete RPMI medium. The non-cancerous HFL1 line was seeded at 4,000 cells per well in complete F12K medium, in collagen-treated plates (Collagen Type 1, Gibco). Cells were incubated with experimental compounds for 48 hours at 37 °C and 5% CO2 in a humidified incubator. At 48 hours, MTT was added (20 µL/well of 5 mg/mL MTT in PBS) to each well. After incubation for 4 hours, the media was removed, and the formazan crystals were dissolved in 100 µL DMSO per well. Plates containing the semi-adherent A2780 or A2780-ADR lines were spun at 1400 rpm for 3 minutes prior to aspiration of media, and the addition of DMSO. Plates were shaken for 10 minutes at 500 rpm on an Orbital shaker (LabDoctor from MidSci, St Louis, MO). The absorbance was measured at 570 nm using a Bio-Tek Cytation 5 (Bio-Tek, Winooski, VT). The measured absorbance value was correlated with the number of metabolically active cells in that well, corrected for absorbance of media. […]
# [1] = DU145-TXR, 5 µM compound, 2.5 h, with 500 nM tariquidar, mean ± SD, triplicate
# [2] = DU145-TXR, 5 µM compound, 2.5 h, without tariquidar, mean ± SD, triplicate
# [3] = significant difference = likely P-gp transport substrate
SMILES,"P-gp transport substrate assessment (P-gp; DU145-TXR, 2.5 h)","Intracellular accumulation (normalized ratio of compound to internal standard), Trial 1, + TQR (P-gp; [1])","Intracellular accumulation (normalized ratio of compound to internal standard), Trial 2, + TQR (P-gp; [1])","Intracellular accumulation (normalized ratio of compound to internal standard), Trial 1, - TQR (P-gp; [2])","Intracellular accumulation (normalized ratio of compound to internal standard), Trial 2, - TQR (P-gp; [2])",Increase of PTX toxicity against parental A2780 cells (A2780 cells),Mean % Survival (A2780 cells; 15 µM compound + 500 nM PTX) [%],% Survival (individual sample) (A2780 cells; 15 µM compound + 500 nM PTX),% Survival (individual sample) (A2780 cells; 15 µM compound alone) [%],viability at 15 µM (A2780 cells; 15 µM compound alone) [%],"P (- TQR vs + TQR), Trial 1 (P-gp; Student's T test of the mean)","P (- TQR vs + TQR), Trial 2 (P-gp; Student's T test of the mean)","Significance of accumulation with tariquidar, Trial 1 (P-gp; [3])","Significance of accumulation with tariquidar, Trial 2 (P-gp; [3])","Intracellular accumulation (normalized ratio of compound to internal standard), Trial 3, + TQR (P-gp; [1])","Intracellular accumulation (normalized ratio of compound to internal standard), Trial 3, - TQR (P-gp; [2])","P (- TQR vs + TQR), Trial 3 (P-gp; Student's T test of the mean)","Significance of accumulation with tariquidar, Trial 3 (P-gp; [3])"
"Cc1onc(-c2ccccc2)c1-c1nnc(Cn2cnc3c(oc4ccccc43)c2=O)o1 [Compound 78, Cc1onc(c1-c1nnc(Cn2cnc3c4ccccc4oc3c2=O)o1)-c1ccccc1]",unlikely to be transport substrates of P-gp,0.001 ± 0.000,0.001 ± 0.000,0.001 ± 0.000,0.001 ± 0.000,did not greatly increase the toxicity of PTX against the parental A2780 cells,13.4,8% and 18%,110,91.4,,,,,,,,
"O=S(=O)(CCSc1nnc(-c2ccccc2)c2ccccc12)c1ccccc1 [Compound 96, O=S(=O)(CCSc1nnc(-c2ccccc2)c2ccccc12)c1ccccc1]",unlikely to be transport substrates of P-gp,0.092 ± 0.036,0.163 ± 0.032,0.087 ± 0.009,0.121 ± 0.005,did not greatly increase the toxicity of PTX against the parental A2780 cells,13.9,19% and 20%,,76.5,0.8,0.09,N.S. (P > 0.05 = not significant (N.S.)),N.S. (P > 0.05 = not significant (N.S.)),,,,
"O=S(=O)(Cc1nc2ccccc2n1CC(O)c1ccc(Cl)cc1)c1ccccc1 (stereo not shown) [Compound 97, OC(Cn1c(CS(=O)(=O)c2ccccc2)nc2ccccc12)c1ccc(Cl)cc1]",unlikely to be transport substrates of P-gp,0.08 ± 0.03,0.10 ± 0.02,0.07 ± 0.02,0.10 ± 0.02,did not greatly increase the toxicity of PTX against the parental A2780 cells,13.0,8% and 19%,,89.8,0.7,> 1,N.S. (P > 0.05 = not significant (N.S.)),N.S. (P > 0.05 = not significant (N.S.)),,,,
"COc1cccc(N2CCN(c3ccc4nnc(CCC(=O)Nc5ccc(F)c(F)c5)n4n3)CC2)c1 [Compound 101, COc1cccc(c1)N1CCN(CC1)c1ccc2nnc(CCC(=O)Nc3ccc(F)c(F)c3)n2n1]",unlikely to be transport substrates of P-gp,12.03 ± 2.45,22.88 ± 2.92,11.86 ± 1.16,21.17 ± 3.59,did not greatly increase the toxicity of PTX against the parental A2780 cells,14.3,,64,91.9,0.9,0.6,N.S. (P > 0.05 = not significant (N.S.)),N.S. (P > 0.05 = not significant (N.S.)),,,,
"Cc1ccc(-c2noc(-c3cn(Cc4ccc(NS(=O)(=O)c5ccccc5F)cc4)cn3)n2)cc1 [Compound 103, Cc1ccc(cc1)-c1noc(n1)-c1cn(Cc2ccc(NS(=O)(=O)c3ccccc3F)cc2)cn1]",potential P-gp transport substrates,5.61 ± 1.34,3.75 ± 0.34,5.13 ± 0.6,2.63 ± 0.52,did not greatly increase the toxicity of PTX against the parental A2780 cells,13.6,10% and 18% and 19%,63,52.9,0.6,0.04,N.S. (P > 0.05 = not significant (N.S.)),* (P < 0.05 = *),3.73 ± 0.15,3.21 ± 0.23,0.03,* (P < 0.05 = *)
